Data: ChEMBL document CHEMBL5352429, “Designed symmetrical β-hairpin peptides for treating multidrug-resistant salmonella typhimurium infections” (Eur J Med Chem, 2022)
≈ marks a conversion by molar mass, not a printed value. Calls of active or inactive are those of the source. No cut-off for these calls is given here. Peptide text beside a SMILES is read from it.

How the values were obtained:
[1] = system: Salmonella enterica subsp. enterica serovar Dublin; assay: (§1) Antibacterial activity against Salmonella dublin CICC 21497 incubated overnight by standard microtiter dilution method; assay type: functional
Enterococcus faecalis = assay: Antibacterial activity against Enterococcus faecalis ATCC 29212 incubated overnight by standard microtiter dilution method; assay type: functional
[2] = system: Salmonella enterica subsp. enterica serovar Wandsworth; assay: (§2) Antibacterial activity against Salmonella wandsworth CICC 21504 incubated overnight by standard microtiter dilution method; assay type: functional
Salmonella typhimurium [3] = assay: Antibacterial activity against multi-drug resistant Salmonella typhimurium DT104 infected in ICR mouse model assessed as reversal of mouse vigour loss at 2 mg/kg, ip administered for 3 days and measured on day 7; assay type: functional, organism-based; details: Salmonella enterica subsp. enterica serovar Typhimurium, time 7.0 day
Lipopolysaccharide (LPS) = assay: Displacement of BODIPY-TR-cadaverine from Salmonella typhimurium LPS assessed as increase in fluorescence intensity by fluorescence spectrophotometric analysis; details: Salmonella enterica subsp. enterica serovar Typhimurium; dose 0.25-8 µg/ml
Salmonella typhimurium [4] = assay: Antibacterial activity against multi-drug resistant Salmonella typhimurium DT104 infected in ICR mouse model assessed as fecal shedding of bacteria at 2 mg/kg, ip administered for 3 days and measured on day 7; assay type: functional, organism-based; details: Salmonella enterica subsp. enterica serovar Typhimurium, time 7.0 day
Staphylococcus aureus [5] = assay: Antibacterial activity against Staphylococcus aureus ATCC 29213 incubated overnight by standard microtiter dilution method; assay type: functional
Salmonella typhimurium [6] = assay: Antibacterial activity against Salmonella typhimurium DT104 ATCC 700408 incubated overnight by standard microtiter dilution method; assay type: functional
Escherichia coli = assay: Antibacterial activity against Escherichia coli O157:H7 CICC 21530 incubated overnight by standard microtiter dilution method; assay type: functional
Salmonella typhimurium [7] = assay: Antibacterial activity against Salmonella typhimurium CICC 21913 incubated overnight by standard microtiter dilution method; assay type: functional
Candida albicans = assay: Antifungal activity against Candida albicans ATCC 10231 incubated overnight by standard microtiter dilution method; assay type: functional
Salmonella paratyphi = assay: Antibacterial activity against Salmonella paratyphi A CICC 21501 incubated overnight by standard microtiter dilution method; assay type: functional
[8] = system: Staphylococcus epidermidis; assay: Antibacterial activity against methicillin-resistant Staphylococcus epidermidis ATCC 12228 incubated overnight by standard microtiter dilution method; assay type: functional
Salmonella typhimurium [9] = assay: Antibacterial activity against multi-drug resistant Salmonella typhimurium DT104 infected in ICR mouse model assessed as reversal of mouse vitality loss at 2 mg/kg, ip administered for 3 days and measured on day 7; assay type: functional, organism-based; details: Salmonella enterica subsp. enterica serovar Typhimurium, time 7.0 day
[10] = system: Salmonella enterica subsp. enterica serovar Blockley; assay: (§3) Antibacterial activity against Salmonella blockley CICC 21489 incubated overnight by standard microtiter dilution method; assay type: functional
Staphylococcus aureus [11] = assay: Antibacterial activity against methicillin-resistant Staphylococcus aureus ATCC 43300 incubated overnight by standard microtiter dilution method; assay type: functional
[12] = system: Salmonella enterica subsp. enterica serovar Paratyphi B; assay: Antibacterial activity against Salmonella paratyphi B CICC 21495 incubated overnight by standard microtiter dilution method; assay type: functional
[13] = system: Salmonella enterica subsp. enterica serovar Choleraesuis; assay: (§4) Antibacterial activity against Salmonella enterica subsp. enterica serovar Choleraesuis CICC 21493 incubated overnight by standard microtiter dilution method; assay type: functional
Salmonella enteritidis = assay: Antibacterial activity against Salmonella enteritidis CICC 21527 incubated overnight by standard microtiter dilution method; assay type: functional
Salmonella typhimurium [14] = assay: Antibacterial activity against multi-drug resistant Salmonella typhimurium DT104 infected in ICR mouse model assessed as reversal of body weight loss at 2 mg/kg, ip administered for 3 days and measured on day 7; assay type: functional, organism-based; details: Salmonella enterica subsp. enterica serovar Typhimurium, time 7.0 day
[15] = system: Salmonella enterica subsp. enterica serovar Paratyphi C; assay: (§5) Antibacterial activity against Salmonella paratyphi C CICC 21512 incubated overnight by standard microtiter dilution method; assay type: functional
Salmonella typhimurium [16] = assay: Antibacterial activity against Salmonella typhimurium CICC 21483 incubated overnight by standard microtiter dilution method; assay type: functional
[17] = system: Salmonella enterica subsp. enterica serovar Choleraesuis; assay: (§6) Antibacterial activity against Salmonella enterica subsp. enterica serovar Choleraesuis ATCC 13312 incubated overnight by standard microtiter dilution method; assay type: functional
Erythrocyte = assay: Hemolytic activity in human Red blood cells assessed as hemolysis incubated for 1 hrs by absorbance based microplate reader analysis; assay type: toxicity, cell-based
RAW264.7 [18] = assay: (§7) Cytotoxicity against mouse RAW264.7 cells infected with Salmonella typhimurium DT104 assessed as cell viability at 1 times of MIC measured at 180 min by MTT assay; assay type: toxicity, cell-based; details: raw264.7, 3 h
[19] = as §1; assay type: functional, Salmonella enterica subsp. enterica serovar Dublin; details: Salmonella enterica
Salmonella typhimurium [20] = assay: Antibacterial activity against Salmonella typhimurium DT104 in the presence of NH4Cl by MH broth based assay; assay type: functional, Salmonella enterica subsp. enterica serovar Typhimurium; details: Salmonella enterica
RAW264.7 [21] = assay: Inhibition of LPS-stimulated IL-8 production in mouse RAW264.7 cells at 1 to 128 ug/ml incubated for 24 hrs by ELISA analysis; assay type: functional, cell-based; details: dose 1-128 µg/ml
Cell membrane [22] = assay: Disruption of membrane integrity in Salmonella typhimurium DT104 assessed as increase in fluorescence intensity at 0.5 to 2 times of MIC incubated for 15 mins by PI staining based flow cytometric analysis; assay type: subcellular; details: Salmonella enterica subsp. enterica serovar Typhimurium
[23] = as §2; assay type: functional, Salmonella enterica subsp. enterica serovar Wandsworth; details: Salmonella enterica
RAW264.7 [24] = assay: Inhibition of LPS-stimulated IL-1beta production in mouse RAW264.7 cells at 1 to 128 ug/ml incubated for 24 hrs by ELISA analysis; assay type: functional, cell-based; details: dose 1-128 µg/ml
Salmonella typhimurium [25] = assay: Antibacterial activity against Salmonella typhimurium DT104 in the presence 25% inactivated mouse serum by MH broth based assay; assay type: functional, Salmonella enterica subsp. enterica serovar Typhimurium; details: Salmonella enterica
Salmonella typhimurium [26] = assay: Antibacterial activity against Salmonella typhimurium DT104 in the presence of FeCl3 by MH broth based assay; assay type: functional, Salmonella enterica subsp. enterica serovar Typhimurium; details: Salmonella enterica
Salmonella typhimurium [27] = assay: Antibacterial activity against Salmonella typhimurium DT104 in the presence of KCl by MH broth based assay; assay type: functional, Salmonella enterica subsp. enterica serovar Typhimurium; details: Salmonella enterica
RAW264.7 [28] = assay: Inhibition of LPS-stimulated NO production in mouse RAW264.7 cells incubated for 24 hrs by Griess reagent based analysis; assay type: functional, cell-based; details: dose 1-128 µg/ml
Salmonella typhimurium [29] = assay: Antibacterial activity against Salmonella typhimurium DT104 in the presence of CaCl2 by MH broth based assay; assay type: functional, Salmonella enterica subsp. enterica serovar Typhimurium; details: Salmonella enterica
Salmonella typhimurium [30] = assay: Antibacterial activity against multi-drug resistant Salmonella typhimurium DT104 assessed as inhibition of bacterial growth at 0.5 to 2 times of MIC by MH agar based serial dilution method; assay type: functional, organism-based; details: Salmonella enterica subsp. enterica serovar Typhimurium, time <= 120.0 min, TDE = time-dependent effect
[31] = as §3; assay type: functional, Salmonella enterica subsp. enterica serovar Blockley; details: Salmonella enterica
Salmonella typhimurium [32] = assay: Antibacterial activity against Salmonella typhimurium DT104 in the presence of MgCl2 by MH broth based assay; assay type: functional, Salmonella enterica subsp. enterica serovar Typhimurium; details: Salmonella enterica
RAW264.7 [33] = assay: Inhibition of LPS-stimulated TNF-alpha production in mouse RAW264.7 cells at 1 to 128 ug/ml incubated for 24 hrs by ELISA analysis; assay type: functional, cell-based; details: dose 1-128 µg/ml
Salmonella typhimurium [34] = assay: Antibacterial activity against multi-drug resistant Salmonella typhimurium DT104 assessed as inhibition of bacterial growth measured upto 120 mins by MH agar based serial dilution method; assay type: functional, organism-based; details: Salmonella enterica subsp. enterica serovar Typhimurium
[35] = as §4; assay type: functional
[36] = as §7; assay type: toxicity, cell-based; details: RAW264.7 cells infected with Salmonella typhimurium DT104, read-out: Activity
Cell membrane [37] = assay: Induction of cytoplasmic membrane depolarization in Salmonella typhimurium DT104 assessed as increase in fluorescence intensity at 2 times of MIC incubated for 15 mins by DiSC3-5 dye based fluorescence method; assay type: subcellular; details: Salmonella enterica subsp. enterica serovar Typhimurium
Salmonella typhimurium [38] = assay: Antibacterial activity against Salmonella typhimurium DT104 in the presence 50% inactivated mouse serum by MH broth based assay; assay type: functional, Salmonella enterica subsp. enterica serovar Typhimurium; details: Salmonella enterica
Salmonella typhimurium [39] = assay: Antibacterial activity against Salmonella typhimurium DT104 in the presence of NaCl by MH broth based assay; assay type: functional, Salmonella enterica subsp. enterica serovar Typhimurium; details: Salmonella enterica
[40] = as §5; assay type: functional, Salmonella enterica subsp. enterica serovar Paratyphi C; details: Salmonella enterica
[41] = as §6; assay type: functional
Salmonella typhimurium [42] = assay: Antibacterial activity against Salmonella typhimurium DT104 infected in mouse RAW264.7 cells assessed as reduction in bacterial cells at 1 times of MIC measured for 180 mins by MH agar based serial dilution method; assay type: functional, organism-based; details: Salmonella enterica subsp. enterica serovar Typhimurium
[43] = Hemolytic activity in human Red blood cells assessed as hemolysis at 128 ug/ml incubated for 1 hrs by absorbance based microplate reader analysis relative to control; assay type: toxicity, cell-based, Erythrocyte; details: red blood cells (erythrocytes), at 128 µg/mL, read-out: Activity
[44] = Salmonella enterica subsp. enterica serovar Typhimurium

POLYMYXIN B [listing 1 of 2 here]
MIC [1]: 2 µg/mL | MIC (Enterococcus faecalis): 128 µg/mL | MIC [2]: 1 µg/mL | Activity (Salmonella typhimurium [3]): inactive | Activity (Lipopolysaccharide (LPS)): Dose-Dependent Effect | Activity (Salmonella typhimurium [4]): inactive | MIC (Staphylococcus aureus [5]): 64 µg/mL | MIC (Salmonella typhimurium [6]; [44]): 4 µg/mL | MIC (Escherichia coli): 32 µg/mL | MIC (Salmonella typhimurium [7]; [44]): 2 µg/mL | MIC (Candida albicans): 64 µg/mL | MIC (Salmonella paratyphi; Salmonella enterica subsp. enterica serovar Paratyphi A): 4 µg/mL | MIC [8]: 4 µg/mL | Activity (Salmonella typhimurium [9]): inactive | MIC [10]: 1 µg/mL | MIC (Staphylococcus aureus [11]): > 128 µg/mL | MIC [12]: 2 µg/mL | MIC [13]: 4 µg/mL | MIC (Salmonella enteritidis; Salmonella enterica subsp. enterica serovar Enteritidis): 2 µg/mL | Activity (Salmonella typhimurium [14]): inactive | MIC [15]: 2 µg/mL | MIC (Salmonella typhimurium [16]; [44]): 2 µg/mL | MIC [17]: 1 µg/mL

POLYMYXIN B [listing 2 of 2 here]
MHC (Erythrocyte): > 128 µg/mL | Activity (RAW264.7 [18]): > 90%

CC(C)C[C@H](NC(=O)[C@H](CCCCN)NC(=O)[C@H](CC(C)C)NC(=O)[C@H](CCCCN)NC(=O)[C@H](CS)NC(=O)CNC(=O)[C@H](CO)NC(=O)[C@H](CCCCN)NC(=O)[C@@H](NC(=O)[C@H](CS)NC(=O)[C@H](CCCCN)NC(=O)[C@H](CC(C)C)NC(=O)[C@H](CCCCN)NC(=O)[C@@H](N)CC(C)C)[C@@H](C)O)C(N)=O (H-LKLKCTKSGCKLKL-NH2)
MIC [19]: 8 µg/mL (≈ 5.12 µM) | MIC (Salmonella typhimurium [20]): 16 µg/mL | inhibition (RAW264.7 [21]): Active | MIC (Enterococcus faecalis): 32 µg/mL (≈ 20.5 µM) | Activity (Cell membrane [22]): Active | MIC [23]: 16 µg/mL (≈ 10.2 µM) | Activity (Lipopolysaccharide (LPS)): Dose-Dependent Effect | inhibition (RAW264.7 [24]): Active | MIC (Staphylococcus aureus [5]): 32 µg/mL (≈ 20.5 µM) | MIC (Salmonella typhimurium [6]; Salmonella enterica): 32 µg/mL (≈ 20.5 µM) | MIC (Salmonella typhimurium [25]): 64 µg/mL (≈ 41 µM) | MIC (Escherichia coli): 2 µg/mL (≈ 1.28 µM) | MIC (Salmonella typhimurium [7]; Salmonella enterica): 64 µg/mL (≈ 41 µM) | MIC (Salmonella typhimurium [26]): 128 µg/mL | MIC (Salmonella typhimurium [27]): 16 µg/mL | inhibition (RAW264.7 [28]): Dose-Dependent Effect | MIC (Salmonella typhimurium [29]): 64 µg/mL | Activity (Salmonella typhimurium [30]): Tde | MIC (Candida albicans): 4 µg/mL (≈ 2.56 µM) | MIC (Salmonella paratyphi; Salmonella enterica): 4 µg/mL (≈ 2.56 µM) | MIC [8]: 8 µg/mL (≈ 5.12 µM) | MIC [31]: 32 µg/mL (≈ 20.5 µM) | MIC (Salmonella typhimurium [32]): 32 µg/mL | MHC (Erythrocyte): > 128 µg/mL | MIC (Staphylococcus aureus [11]): 16 µg/mL (≈ 10.2 µM) | inhibition (RAW264.7 [33]): Active | MIC [12]: 2 µg/mL (≈ 1.28 µM) | Activity (Salmonella typhimurium [34]): Dose-Dependent Effect | MIC [35]: 16 µg/mL (≈ 10.2 µM) | MIC (Salmonella enteritidis; Salmonella enterica): 16 µg/mL (≈ 10.2 µM) | viability at 3 h, 1 times of MIC [36]: > 90% | Activity (Cell membrane [37]): Active | MIC (Salmonella typhimurium [38]): 64 µg/mL (≈ 41 µM) | MIC (Salmonella typhimurium [39]): 32 µg/mL | MIC [40]: 2 µg/mL (≈ 1.28 µM) | MIC (Salmonella typhimurium [16]; Salmonella enterica): 16 µg/mL (≈ 10.2 µM) | MIC [41]: 1 µg/mL (≈ 0.64 µM) | Activity (Salmonella typhimurium [42]): Active | hemolysis at 1 h, 128 ug/ml [43]: < 10%
